Where two headings read alike, the source gives them in different places.

Experiment [1] relates to bacteria, fungi and yeasts. To be noted: general statement, no test described, cited from earlier work.
The test system of another experiment is Aspergillus brasiliensis. The experiment is described as follows: Antimicrobial efficacy, minimum inhibitory concentration (MIC) in agar. To be noted: Sabouraud 4% dextrose agar pH 5.6, read-out: MIC of isosorbide. It counts as cell-based. The method, then:
(§1) Below, the antimicrobial efficacy of a composition according to the invention consisting of 50% by weight of isosorbide caprylate 1 and 50% by weight of phenoxyethanol against bacteria, fungi and yeasts is examined (hereinbelow, the composition is referred to as “composition A”). For the tests with bacteria, composition A was diluted with butyl polyglycol and then, at 50° C., added to liquid CASO agar (casein-peptone agar) buffered to pH 7 (+/−0.2) in various concentrations (hereinbelow referred to as compositions B1, B2, etc.). For the tests with fungi and yeasts, composition A was diluted with butyl polyglycol and then added to liquid Sabouraud 4% dextrose agar buffered to pH 5.6 (+/−0.2) in various concentrations (hereinbelow referred to as compositions PH1, PH2, etc.). The compositions B1, B2, etc. and PH1, PH2 etc. were each poured into Petri dishes and each inoculated with identical amounts of bacteria, fungi and yeasts. The minimum inhibitory concentration (MIC) is the concentration at which inhibition of the growth of the bacteria, fungi and yeasts in the compositions B1, B2, etc. and PH1, PH2, etc. occurs.
(§2) The minimum inhibitory concentrations for the pure substances isosorbide caprylate 1 and phenoxyethanol were determined analogously. […]
(§3) The values determined for the minimum inhibitory concentrations “QA” and “QB”, stated in Table 1 below, have already been corrected for the dilution effect of the butyl polyglycol. […]
(§4) Analogously to the determination of the antimicrobial activity according to the above example B), the antimicrobial activity of a mixture comprising, firstly, 89.6% by weight of isosorbide dicaprylate and 9.4% by weight of isosorbide monocaprylate (remainder: 1% by weight) (hereinbelow referred to as “isosorbide dicaprylate”) and, secondly, pure isosorbide was determined in further test series.

The next experiment deals with Aspergillus terreus. The description is as above. It is filed as cell-based. To be noted: Sabouraud 4% dextrose agar pH 5.6, read-out: MIC of isosorbide. The method, then: as §1, §2, §3, §4
The test system of another experiment is Candida albicans. The experiment is described as above. It counts as cell-based. To be noted: Sabouraud 4% dextrose agar pH 5.6, read-out: MIC of isosorbide. Here is the method:
as §1, §2, §3, §4

For another experiment, the system named is Citrobacter freundii. The description is as above. To be noted: CASO agar pH 7, read-out: MIC of isosorbide. It counts as cell-based. Here is the method:
as §1, §2, §3, §4

The next experiment has as its system Enterobacter aerogenes. The description is as above. It is filed as cell-based. To be noted: Klebsiella aerogenes, CASO agar pH 7, read-out: MIC of isosorbide. Here is the method: as §1, §2, §3, §4
The next experiment deals with Escherichia coli. The experiment is described as above. It counts as cell-based. To be noted: CASO agar pH 7, read-out: MIC of isosorbide. Here is the method:
as §1, §2, §3, §4

Another experiment relates to Fusarium solani. Described as above. It counts as cell-based. To be noted: Sabouraud 4% dextrose agar pH 5.6, read-out: MIC of isosorbide. The method, then:
as §1, §2, §3, §4

In the next experiment the test system is Klebsiella pneumoniae. The experiment is described as above. It is filed as cell-based. To be noted: CASO agar pH 7, read-out: MIC of isosorbide. Here is the method: as §1, §2, §3, §4
Another experiment deals with Penicillium funicolosium. The experiment is described as above. It is filed as cell-based. To be noted: Sabouraud 4% dextrose agar pH 5.6, read-out: MIC of isosorbide. Here is the method: as §1, §2, §3, §4
The subject of another experiment is Penicillium minioluteum. Described as above. It counts as cell-based. To be noted: Talaromyces minioluteus, Sabouraud 4% dextrose agar pH 5.6, read-out: MIC of isosorbide. Here is the method:
as §1, §2, §3, §4

The subject of the next experiment is Proteus vulgaris. The description is as above. To be noted: CASO agar pH 7, read-out: MIC of isosorbide. It is filed as cell-based. Here is the method:
as §1, §2, §3, §4

The next experiment concerns Pseudomonas aeruginosa. Described as above. It is filed as cell-based. To be noted: CASO agar pH 7, read-out: MIC of isosorbide. Here is the method:
as §1, §2, §3, §4

The subject of another experiment is Pseudomonas oleovorans. Described as above. It is filed as cell-based. To be noted: Ectopseudomonas oleovorans, CASO agar pH 7, read-out: MIC of isosorbide. The method, then:
(§5) Below, the antimicrobial efficacy of a composition according to the invention consisting of 50% by weight of isosorbide caprylate 1 and 50% by weight of phenoxyethanol against bacteria, fungi and yeasts is examined (hereinbelow, the composition is referred to as “composition A”). For the tests with bacteria, composition A was diluted with butyl polyglycol and then, at 50° C., added to liquid CASO agar (casein-peptone agar) buffered to pH 7 (+/−0.2) in various concentrations (hereinbelow referred to as compositions B1, B2, etc.). […]
(§6) The minimum inhibitory concentrations for the pure substances isosorbide caprylate 1 and phenoxyethanol were determined analogously.
(§7) The values determined for the minimum inhibitory concentrations “MIC mixture”, stated in Table 1 below, are based on the concentrations of composition A.
as §3, §4

For another experiment, the system named is Staphylococcus aureus. The experiment is described as above. It is filed as cell-based. To be noted: CASO agar pH 7, read-out: MIC of isosorbide. The method, then:
as §5, §6, §7, §3, §4

The test system of experiment [2] is bacteria, fungi and yeasts. Put plainly: Antimicrobial efficacy, summary statements over the organisms tested. It counts as cell-based. The method, then:
Below, the antimicrobial efficacy of a composition according to the invention consisting of 50% by weight of isosorbide caprylate 1 and 50% by weight of phenoxyethanol against bacteria, fungi and yeasts is examined (hereinbelow, the composition is referred to as “composition A”). For the tests with bacteria, composition A was diluted with butyl polyglycol and then, at 50° C., added to liquid CASO agar (casein-peptone agar) buffered to pH 7 (+/−0.2) in various concentrations (hereinbelow referred to as compositions B1, B2, etc.). For the tests with fungi and yeasts, composition A was diluted with butyl polyglycol and then added to liquid Sabouraud 4% dextrose agar buffered to pH 5.6 (+/−0.2) in various concentrations (hereinbelow referred to as compositions PH1, PH2, etc.). […]
as §2, §4

Take `CCCCCCCC(=O)O` [caprylic acid]: the figures for the “antimicrobial activity (in words)” value in experiment [1] (at a pH of 6 or above) and in experiment [1] were “no antimicrobial activity” and “antimicrobially effective”, respectively.
Regarding `O[C@@H]1CO[C@H]2[C@@H]1OC[C@@H]2O` [isosorbide], the MIC with Aspergillus brasiliensis, in the experiment on Aspergillus terreus, in the experiment on Candida albicans, in the experiment on Citrobacter freundii, with Enterobacter aerogenes and in the experiment on Escherichia coli was 10000 µg/mL in each case. Further, the MIC with Fusarium solani, in the experiment with Klebsiella pneumoniae, with Penicillium funicolosium, with Penicillium minioluteum, in the experiment with Proteus vulgaris and in the experiment on Pseudomonas aeruginosa was 10000 µg/mL each time. Besides, the minimum inhibitory concentration (MIC) with Pseudomonas oleovorans and in the experiment on Staphylococcus aureus was 10000 µg/mL each time. Moreover, the “antimicrobial activity (in words)” value in experiment [2] (summary of the MICs of Table 2) was “neither isosorbide nor isosorbide dicaprylate are antimicrobially active”.
Consider isosorbide monocaprylate, for which the “antimicrobial activity (in words)” value in experiment [2] (concluded from Tables 1 and 2, not tested as pure compound) is reported as “significant antimicrobial activity”.

The values are drawn from patent US10406135B2, “Compositions containing isosorbide monoester and alcohols that contain at least one aromatic group” (Clariant International Ltd., priority 2011, dated 2019).
